For orientation: IC50 means the concentration needed to halve the response being measured. A low value points to higher potency.

Common to all, as to format: cell-based
In assay [1] the test system is LU99 MTAP overexpressing cells. The assay can be described thus: Inhibitory activity on proliferation of LU99 MTAP overexpressing cells (Cell-Titer Glo). The note with it: Homo sapiens, Lu-99, 144 h, incubated 6 d, 0-10,000 nM. As for the experimental part:
Materials and cells: LU99 MTAP overexpressing cell line was purchased from Kyinno Biotechnology (China); cell culture medium and fetal bovine serum were purchased from Thermo Fisher Scientific (USA); 384-well plates were purchased from PerkinElmer (USA); Cell-Titer Glo kits were purchased from Promega (USA).
Cell culture: LU99 MTAP overexpressing cells were cultured with medium containing 10% fetal bovine serum at 37°C in 5% carbon dioxide. Only cells in the logarithmic growth phase could be used for the test.
(§1) Test of inhibitory activity on cell proliferation: The Cell-Titer Glo kit was used to test the proliferation inhibitory activity of the compounds on LU99 MTAP overexpressing cells. The cell concentration was adjusted, rendering that cells were inoculated into a 384-well plate at 40 µL per well and incubated overnight at 37°C and 5% carbon dioxide. 40 nL of the compound was added to each well to reach a final concentration of 0-10,000 nM (starting concentration 10,000 nM, 2.5-fold dilution, 10 points), and the cell plate with 0.2% DMSO content was incubated at 37°C and 5% carbon dioxide for 6 d. 40 µL of Cell-Titer Glo reagent was added to test cell viability.

Another assay relates to HCT-116 wild-type cells. The assay can be described thus: Inhibitory activity on proliferation of HCT-116 wild-type cells (Cell-Titer Glo). The note with it: Homo sapiens, 144 h, incubated 6 d, 0-10,000 nM. The procedure: Materials and cells: HCT-116 wild-type cells were purchased from Kyinno Biotechnology (China); RPMI-1640 medium, and fetal bovine serum were purchased from Thermo Fisher (United States); 384-well plates were purchased from PerkinElmer (United States); Cell-Titer Glo kit was purchased from Promega (United States).
Cell culture: HCT-116 wild-type cells were cultured in RPMI-1640 medium containing 10% fetal bovine serum at 37°C and 5% carbon dioxide. Only cells in the logarithmic growth phase could be used for the test.
as §1, with “of” for “of inhibitory activity on”, “cell proliferation activity:” for “cell proliferation: The”, “the compound” for “the compounds”, “on HCT-116 wild-type” for “on LU99 MTAP overexpressing”, “dioxide. 80” for “dioxide. 40”

Assay [2] deals with HCT-116 MTAP(-/-)deleted cells. The assay can be described thus: Inhibitory activity on proliferation of HCT-116 MTAP(-/-)deleted cells (Cell-Titer Glo). The note with it: Homo sapiens, 144 h, incubated 6 d, 0-1,000 nM. The procedure:
Materials and cells: HCT-116 MTAP(-/-)deleted cells were purchased from Kyinno Biotechnology (China); RPMI-1640 medium, and fetal bovine serum were purchased from Thermo Fisher (United States); 384-well plates were purchased from PerkinElmer (United States); Cell-Titer Glo kit was purchased from Promega (United States).
Cell culture: HCT116 MTAP(-/-)deleted cells were cultured with RPMI 1640 medium containing 10% fetal bovine serum at 37°C in 5% carbon dioxide. Only cells in the logarithmic growth phase could be used for the test.
(§2) Test of inhibitory activity on cell proliferation: The Cell-Titer Glo kit was used to test the proliferation inhibitory activity of the compounds on HCT-116 MTAP(-/-)deleted cells. The cell concentration was adjusted, rendering that cells were inoculated into a 384-well plate at 40 µL per well and incubated overnight at 37°C and 5% carbon dioxide. 80 nL of the compound was added into each well to reach a final concentration of 0-1,000 nM (starting concentration 1,000 nM, 2.5-fold dilution, 10 points), and the cell plate with 0.2% DMSO content was incubated at 37°C and 5% carbon dioxide for 6 d. 40 µL of Cell-Titer Glo reagent was added to test cell viability.

Assay [3] deals with LU99 MTAP(-/-)deleted cells. The assay can be described thus: Inhibitory activity on proliferation of LU99 MTAP(-/-)deleted cells (Cell-Titer Glo). As to conditions: Homo sapiens, Lu-99, 144 h, incubated 6 d, 0-1,000 nM. As for the experimental part: Materials and cells: LU99 MTAP deleted cell line was purchased from Kyinno Biotechnology (China); cell culture medium and fetal bovine serum were purchased from Thermo Fisher Scientific (USA); 384-well plates were purchased from PerkinElmer (USA); Cell-Titer Glo kits were purchased from Promega (USA).
Cell culture: LU99 MTAP(-/-)deleted cells were cultured with medium containing 10% fetal bovine serum at 37°C in 5% carbon dioxide. Only cells in the logarithmic growth phase could be used for the test.
as §2, with “on LU99” for “on HCT-116”, “dioxide. 40” for “dioxide. 80”, “added to” for “added into”

For `CN(C(=O)c1ccc2nc(N)c3cnn(C)c3c2c1)[C@H]1COC(C)(C)c2cc(C(F)(F)F)ccc21` [Example 17, (R)-4-amino-N-(1,1-dimethyl-7-(trifluoromethyl)isochroman-4-yl)-N,1-dimethyl-1H-pyrazolo[4,3-c]quinoline-8-carboxamide], the IC50 in assay [1] stood at 5220 nM; in the assay with HCT-116 wild-type cells, 5550 nM; in assay [2] it was 140 nM; in assay [3], 174 nM.
The matching figures for `CN(C(=O)c1ccc2nc(N)c3cnn(C)c3c2c1)[C@@H]1COC(C)(C)c2cc(N3CCOCC3)ccc21` [Example 33, (S)-4-amino-N-(1,1-dimethyl-7-morpholinoisochroman-4-yl)-N,1-dimethyl-1H-pyrazolo[4,3-c]quinoline-8-carboxamide]: 2260 nM, 1340 nM, 5.3 nM and 8.6 nM.
The matching figures for `CN(C(=O)c1ccc2nc(N)c3cnn(C)c3c2c1)[C@@H]1COC(C)(C)c2nc(C(F)(F)F)ccc21` [Example 50]: 7400 nM, greater than 10000 nM, 413 nM and 525 nM.
Take `CN(C(=O)c1ccc2nc(N)c3cnn(C)c3c2c1)[C@@H]1COC(C)(C)c2cc(N3CCn4cncc4C3)ccc21` [Example 86, N-((4S)-7-imidazo[5,1-c]piperazin-7-yl-1,1-dimethylisochroman-4-yl)(4-amino-1-methylpyrazolo[4,5-c]quinolin-8-yl)-N-methylformamide]: the IC50 in assay [1] is 7870 nM; with HCT-116 wild-type cells it was 3790 nM; in assay [2] it was 21.6 nM; in assay [3] it was 31 nM.
`CN(C(=O)c1ccc2nc(N)c3cnn(C)c3c2c1)[C@@H]1COC2(CCC2)c2cc(C(F)(F)F)ncc21` [Example 84, N-[(4S)-7-(trifluoromethyl)spiro[1,4-dihydro-3H-pyrano[4,5-c]pyridine-1,1'-cyclobutan]-4-yl](4-amino-1-methylpyrazolo[4,5-c]quinolin-8-yl)-N-methylformamide]: the IC50 in assay [1] turned out to be 1640 nM; with HCT-116 wild-type cells it was 1370 nM; in assay [2], 6.7 nM; in assay [3] it was 10 nM.
`CN(C(=O)c1cc2c3c(c(N)nc2cn1)COC3)C1COC(C)(C)c2cc(-c3ccnn3C)ccc21` (stereo not drawn) [Example 9, (4-Amino(1,3-dihydrofuro[3,4-d]pyrido[5,4-b]pyridin-8-yl))-N-[1,1-dimethyl-7-(1-methylpyrazol-5-yl)isochroman-4-yl]-N-methylformamide]: the IC50 is 9790 nM in assay [1], greater than 10000 nM in the assay with HCT-116 wild-type cells, 45.4 nM in assay [2] and 85 nM in assay [3].
The matching figures for `Cc1ncc(-c2ccc3c(c2)C(C)(C)OC[C@H]3N(C)C(=O)c2ccc3nc(N)c4cnn(C)c4c3c2)cn1` [Example 34, (S)-4-amino-N-(1,1-dimethyl-7-(2-methylpyrimidin-5-yl)isochroman-4-yl)-N,1-dimethyl-1H-pyrazolo[4,3-c]quinoline-8-carboxamide]: 1660 nM, 1620 nM, 8.5 nM and 5.2 nM.
Taken in the same sequence, the figures for `CN(C(=O)c1cc2c(cn1)nc(N)c1cnn(C)c12)[C@@H]1COC(C)(C)c2cc(C(F)(F)F)ccc21` [Example 28, (S)-4-amino-N-(1,1-dimethyl-7-(trifluoromethyl)isochroman-4-yl)-N,1-dimethyl-1H-pyrazolo[4,3-c][1,7]naphthyridine-8-carboxamide] were 376 nM, 226 nM, 10.3 nM and 10.7 nM.
The matching figures for `CN(C(=O)c1ccc2nc(N)c3cnn(C)c3c2c1)[C@@H]1COC(C)(C)c2cc(-c3cncc(C(F)(F)F)c3)ccc21` [Example 41, (S)-4-amino-N-(1,1-dimethyl-7-(5-(trifluoromethyl)pyridin-3-yl)isochroman-4-yl)-N,1-dimethyl-1H-pyrazolo[4,3-c]quinoline-8-carboxamide]: 1860 nM, 1030 nM, 4.6 nM and 6.1 nM.

(Values after patent publication EP4803519A1, “NOVEL PRMT5 INHIBITOR AND USE THEREOF” (Shanghai Apeiron Therapeutics Company Limited, priority 2023, dated 2025).)
